Measured values: US11795460B2, “Compositions and methods for TTR gene editing and treating ATTR amyloidosis” (Intellia Therapeutics, Inc., priority 2017, dated 2023)
Strand notation (5' to 3'): a small letter for the sugar, then the base; units joined by * are phosphorothioate-linked, units joined directly phosphodiester-linked; [ ] holds rarer units or linkages, { } end groups; capitals alone tell only the bases. m = 2'-O-methyl; r = 2'-OH (RNA)

B1: G000497: TTR sgRNA modified sequence, Human, SEQ ID No. 104; guide sequence of CR003335 (nucleic acid)
guide: mC*mU*mG*rCrUrCrCrUrCrCrUrCrUrGrCrCrUrUrGrCrGrUrUrUrUrArGrAmGmCmUmAmGmAmAmAmUmAmGmCrArArGrUrUrArArArArUrArArGrGrCrUrArGrUrCrCrGrUrUrArUrCrAmAmCmUmUmGmAmAmAmAmAmGmUmGmGmCmAmCmCmGmAmGmUmCmGmGmUmGmCmU*mU*mU*mU
B2: G000572: TTR sgRNA modified sequence, Human, SEQ ID No. 113; guide sequence of CR003385 (nucleic acid)
guide: mC*mC*mC*rCrUrArCrUrCrCrUrArUrUrCrCrArCrCrArGrUrUrUrUrArGrAmGmCmUmAmGmAmAmAmUmAmGmCrArArGrUrUrArArArArUrArArGrGrCrUrArGrUrCrCrGrUrUrArUrCrAmAmCmUmUmGmAmAmAmAmAmGmUmGmGmCmAmCmCmGmAmGmUmCmGmGmUmGmCmU*mU*mU*mU
B3: G000570: TTR sgRNA modified sequence, Human, SEQ ID No. 111; guide sequence of CR003347 (nucleic acid)
guide: mC*mA*mU*rUrGrArUrGrGrCrArGrGrArCrUrGrCrCrUrGrUrUrUrUrArGrAmGmCmUmAmGmAmAmAmUmAmGmCrArArGrUrUrArArArArUrArArGrGrCrUrArGrUrCrCrGrUrUrArUrCrAmAmCmUmUmGmAmAmAmAmAmGmUmGmGmCmAmCmCmGmAmGmUmCmGmGmUmGmCmU*mU*mU*mU
B4: G000568: TTR sgRNA modified sequence, Human, SEQ ID No. 110; guide sequence of CR003391 (nucleic acid)
guide: mG*mG*mC*rUrGrUrCrGrUrCrArCrCrArArUrCrCrCrArGrUrUrUrUrArGrAmGmCmUmAmGmAmAmAmUmAmGmCrArArGrUrUrArArArArUrArArGrGrCrUrArGrUrCrCrGrUrUrArUrCrAmAmCmUmUmGmAmAmAmAmAmGmUmGmGmCmAmCmCmGmAmGmUmCmGmGmUmGmCmU*mU*mU*mU
B5: G000500: TTR sgRNA modified sequence, Human, SEQ ID No. 107; guide sequence of CR003337 (nucleic acid)
guide: mC*mC*mA*rGrUrCrCrArGrCrArArGrGrCrArGrArGrGrGrUrUrUrUrArGrAmGmCmUmAmGmAmAmAmUmAmGmCrArArGrUrUrArArArArUrArArGrGrCrUrArGrUrCrCrGrUrUrArUrCrAmAmCmUmUmGmAmAmAmAmAmGmUmGmGmCmAmCmCmGmAmGmUmCmGmGmUmGmCmU*mU*mU*mU
B6: G000567: TTR sgRNA modified sequence, Human, SEQ ID No. 109; guide sequence of CR003352 (nucleic acid)
guide: mG*mA*mA*rArGrGrCrUrGrCrUrGrArUrGrArCrArCrCrGrUrUrUrUrArGrAmGmCmUmAmGmAmAmAmUmAmGmCrArArGrUrUrArArArArUrArArGrGrCrUrArGrUrCrCrGrUrUrArUrCrAmAmCmUmUmGmAmAmAmAmAmGmUmGmGmCmAmCmCmGmAmGmUmCmGmGmUmGmCmU*mU*mU*mU
B7: G000496: TTR sgRNA modified sequence, Human, SEQ ID No. 103; guide sequence of CR005304 (nucleic acid)
guide: mG*mG*mC*rCrGrUrGrCrArUrGrUrGrUrUrCrArGrArArGrUrUrUrUrArGrAmGmCmUmAmGmAmAmAmUmAmGmCrArArGrUrUrArArArArUrArArGrGrCrUrArGrUrCrCrGrUrUrArUrCrAmAmCmUmUmGmAmAmAmAmAmGmUmGmGmCmAmCmCmGmAmGmUmCmGmGmUmGmCmU*mU*mU*mU
B8: G000498: TTR sgRNA modified sequence, Human, SEQ ID No. 105; guide sequence of CR003359 (nucleic acid)
guide: mA*mG*mU*rGrArGrUrCrUrGrGrArGrArGrCrUrGrCrArGrUrUrUrUrArGrAmGmCmUmAmGmAmAmAmUmAmGmCrArArGrUrUrArArArArUrArArGrGrCrUrArGrUrCrCrGrUrUrArUrCrAmAmCmUmUmGmAmAmAmAmAmGmUmGmGmCmAmCmCmGmAmGmUmCmGmGmUmGmCmU*mU*mU*mU
B9: G000501: TTR sgRNA modified sequence, Human, SEQ ID No. 108; guide sequence of CR005300 (nucleic acid)
guide: mU*mC*mA*rCrArGrArArArCrArCrUrCrArCrCrGrUrArGrUrUrUrUrArGrAmGmCmUmAmGmAmAmAmUmAmGmCrArArGrUrUrArArArArUrArArGrGrCrUrArGrUrCrCrGrUrUrArUrCrAmAmCmUmUmGmAmAmAmAmAmGmUmGmGmCmAmCmCmGmAmGmUmCmGmGmUmGmCmU*mU*mU*mU
B10: G000571: TTR sgRNA modified sequence, Human, SEQ ID No. 112; guide sequence of CR005301 (nucleic acid)
guide: mG*mU*mC*rArCrArGrArArArCrArCrUrCrArCrCrGrUrGrUrUrUrUrArGrAmGmCmUmAmGmAmAmAmUmAmGmCrArArGrUrUrArArArArUrArArGrGrCrUrArGrUrCrCrGrUrUrArUrCrAmAmCmUmUmGmAmAmAmAmAmGmUmGmGmCmAmCmCmGmAmGmUmCmGmGmUmGmCmU*mU*mU*mU

Key:
TTR [1] = assay: TTR editing in primary human hepatocytes electroporated with Spy Cas9 protein loaded with dgRNAs (Table 7); format: cell-based; conditions: dgRNA electroporated with Spy Cas9 protein (RNP)
Outline: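 Primary human or cynomolgus hepatocytes electroporated (Lonza P3 buffer, program EX-147) with Spy Cas9 RNP carrying pre-annealed crRNA/trRNA dual guides. Genomic DNA harvested at 24, 48 or 72 h; target amplicons sequenced by Illumina MiSeq. Percent editing = reads with indels or substitutions over total reads.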

off-target genomic sites = assay: Off-target oligo insertion based assay in HEK293_Cas9 cells, dgRNAs and sgRNAs (Tables 23, 24); format: cell-based, human; conditions: for # Sites in HekCas9 cells (Example 5): Table 30, TTR sgRNAs, repeated from Example 5 for comparison
Outline: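 In HEK293 cells constitutively expressing Spy Cas9, crRNA (15 nM) plus trRNA (15 nM), or modified sgRNAs, were lipofected with donor oligo (10 nM). Genomic DNA was collected at 24 h, and oligo-insertion libraries were sequenced on MiSeq/HiSeq to map potential off-target cleavage sites.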

TTR [2] = assay: TTR editing in primary human hepatocytes transfected with Spy Cas9 mRNA and dgRNAs (Table 9); format: cell-based; conditions: dgRNA co-transfected with Spy Cas9 mRNA (SEQ ID NO:2)
Outline: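 PHH sequentially lipofected with Spy Cas9 mRNA (100 ng), then crRNA plus tracrRNA (25 nM each) dual-guide lipoplex. Cells harvested 24, 48 or 72 h post-transfection; TTR target amplicons sequenced on Illumina MiSeq, editing given as percent reads with indels or substitutions over total reads.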

[3] = Table 23, TTR dgRNAs in HekCas9 cells, oligo insertion based assay
[4] = Table 24, TTR sgRNAs in HekCas9 cells, insertion detection method

Molecule | Avg % Deletion (TTR [1]) [%] | Avg % Edit (TTR [1]) [%] | Avg % Insert (TTR [1]) [%] | # Sites (off-target integration sites detected) (off-target genomic sites; [3]) | Avg % Deletion (TTR [2]) [%] | Avg % Edit (TTR [2]) [%] | Avg % Insert (TTR [2]) [%] | # Sites (off-target integration sites detected) (off-target genomic sites; [4]) | # Sites in HekCas9 cells (Example 5) (off-target genomic sites)
ACGUGUCUUCUCUACACCCA (tested as dual guide RNA, chemistry not given here) [CR005302] | 1.00 | 61.10 | 60.10 | 1 | 1.13 | 34.80 | 33.67 |  | 
GGCUGUCGUCACCAAUCCCA (tested as dual guide RNA, chemistry not given here) [CR003391] | 0.27 | 29.77 | 29.57 | 0 | 0.30 | 15.47 | 15.20 |  | 
CCGUGGUGGAAUAGGAGUAG (tested as dual guide RNA, chemistry not given here) [CR003386] | 0.47 | 4.90 | 4.47 | 1 | 0.13 | 8.27 | 8.20 |  | 
GACGACAGCCGUGGUGGAAU (tested as dual guide RNA, chemistry not given here) [CR003388] | 0.27 | 5.70 | 5.47 | 2 | 1.17 | 12.97 | 11.87 |  | 
ACUGAGGAGGAAUUUGUAGA (tested as dual guide RNA, chemistry not given here) [CR003363] | 1.63 | 9.43 | 7.80 | 4 | 4.93 | 16.70 | 11.80 |  | 
CAGAGGACACUUGGAUUCAC (tested as dual guide RNA, chemistry not given here) [CR003343] | 1.50 | 77.10 | 75.63 | 2 | 2.60 | 55.03 | 52.40 |  | 
GCGGCAAUGGUGUAGCGGCG (tested as dual guide RNA, chemistry not given here) [CR003377] | 0.10 | 10.23 | 10.13 | 0 | 0.57 | 17.53 | 16.97 |  | 
UGAAUCCAAGUGUCCUCUGA (tested as dual guide RNA, chemistry not given here) [CR005303] | 0.53 | 53.57 | 53.07 | 1 | 0.50 | 35.50 | 35.00 |  | 
AAGUGCCUUCCAGUAAGAUU (tested as dual guide RNA, chemistry not given here) [CR003368] | 0.80 | 28.47 | 27.63 | 2 | 0.60 | 11.10 | 10.53 |  | 
B1 |  |  |  |  |  |  |  | 26 | 26
B2 |  |  |  |  |  |  |  | 15 | 15
B3 |  |  |  |  |  |  |  | 19 | 19
B4 |  |  |  |  |  |  |  | 937 | 936
B5 |  |  |  |  |  |  |  | 46 | 46
B6 |  |  |  |  |  |  |  | 9 | 9
B7 |  |  |  |  |  |  |  | 1 | 1
B8 |  |  |  |  |  |  |  | 82 | 82
B9 |  |  |  |  |  |  |  | 4 | 4
B10 |  |  |  |  |  |  |  | 16 | 16
